≈ marks a conversion by molar mass, not a printed value. Like-named read-outs stand apart in the source and are kept apart here. One block for each compound: values may come before it.
Legend:
[1] = test system: A. baumanii S-10 (ESBL strain); test: Agar dilution MIC (CLSI); format: cell-based; settings: A. baumanii S-10; for MIC: Acinetobacter baumannii
Protocol: (§1) In a typical study, overnight grown bacterial cultures were diluted appropriately and inoculated on the agar media containing doubling dilutions of the antibiotic. Observation for growth or no growth was performed after 16-20 hours of incubation at 35±2° C. in ambient air.

[2] = test system: A. baumanii S-8 (ESBL strain); test: Agar dilution MIC (CLSI); format: cell-based; settings: A. baumanii S-8; for MIC: Acinetobacter baumannii
Protocol: as §1

[3] = test system: A. baumanii 13304 (ESBL strain); test: Agar dilution MIC (CLSI); format: cell-based; settings: A. baumanii 13304; for MIC: Acinetobacter baumannii
Protocol: as §1

[4] = test system: A. baumanii 13305 (ESBL strain); test: Agar dilution MIC (CLSI); format: cell-based; settings: A. baumanii 13305; for MIC: Acinetobacter baumannii
Protocol: as §1

[5] = test system: A. baumanii S-3 (ESBL strain); test: Agar dilution MIC (CLSI); format: cell-based; settings: A. baumanii S-3; for MIC: Acinetobacter baumannii
Protocol: as §1

[6] = test system: A. baumanii S-15 (ESBL strain); test: Agar dilution MIC (CLSI); format: cell-based; settings: A. baumanii S-15
Protocol: as §1

[7] = test system: A. baumanii S-4 (ESBL strain); test: Agar dilution MIC (CLSI); format: cell-based; settings: A. baumanii S-4
Protocol: as §1

[8] = test system: A. baumanii 13301 (ESBL strain); test: Agar dilution MIC (CLSI); format: cell-based; settings: A. baumanii 13301; for MIC: Acinetobacter baumannii
Protocol: as §1

ESBL strains = test: Agar dilution MIC (CLSI), text summary over the strains; format: cell-based, A. baumanii
Protocol: as §1

[9] = NXL-104 4 mcg/ml + Sulbactam 8 mcg/ml
[10] = NXL-104 6 mcg/ml + Sulbactam 6 mcg/ml
[11] = NXL-104 8 mcg/ml + Sulbactam 4 mcg/ml
[12] = NXL-104 4 mcg/ml + Sulbactam 4 mcg/ml
[13] = NXL-104 4 to 8 mcg/ml, read-out: MIC of beta-lactam in presence of NXL-104 (4 to 8 mcg/ml)

MIC of beta-lactam with NXL-104 (4 mcg/ml) + Sulbactam (8 mcg/ml) [1]: 8 µg/mL | MIC of beta-lactam with NXL-104 (6 mcg/ml) + Sulbactam (6 mcg/ml) [1]: <0.03 µg/mL | MIC of beta-lactam with NXL-104 (8 mcg/ml) + Sulbactam (4 mcg/ml) [1]: <0.03 µg/mL | MIC of beta-lactam with NXL-104 (4 mcg/ml) + Sulbactam (8 mcg/ml) [2]: 8 µg/mL | MIC of beta-lactam with NXL-104 (6 mcg/ml) + Sulbactam (6 mcg/ml) [2]: 0.5 µg/mL | MIC of beta-lactam with NXL-104 (8 mcg/ml) + Sulbactam (4 mcg/ml) [2]: 0.5 µg/mL | MIC of beta-lactam with NXL-104 (4 mcg/ml) + Sulbactam (4 mcg/ml) [3]: <0.06 µg/mL | MIC of beta-lactam with NXL-104 (4 mcg/ml) + Sulbactam (8 mcg/ml) [3]: <0.06 µg/mL | MIC of beta-lactam with NXL-104 (6 mcg/ml) + Sulbactam (6 mcg/ml) [3]: <0.06 µg/mL | MIC of beta-lactam with NXL-104 (8 mcg/ml) + Sulbactam (4 mcg/ml) [3]: <0.06 µg/mL | MIC of beta-lactam with NXL-104 (4 mcg/ml) + Sulbactam (4 mcg/ml) [4]: <0.06 µg/mL | MIC of beta-lactam with NXL-104 (4 mcg/ml) + Sulbactam (8 mcg/ml) [4]: <0.06 µg/mL | MIC of beta-lactam with NXL-104 (6 mcg/ml) + Sulbactam (6 mcg/ml) [4]: <0.06 µg/mL | MIC of beta-lactam with NXL-104 (8 mcg/ml) + Sulbactam (4 mcg/ml) [4]: <0.06 µg/mL | MIC of beta-lactam in presence of Sulbactam (4 to 8 mcg/ml) [4]: 4 µg/mL | MIC of beta-lactam with NXL-104 (4 mcg/ml) + Sulbactam (8 mcg/ml) [5]: 4 µg/mL | MIC of beta-lactam with NXL-104 (6 mcg/ml) + Sulbactam (6 mcg/ml) [5]: 1 µg/mL | MIC of beta-lactam with NXL-104 (8 mcg/ml) + Sulbactam (4 mcg/ml) [5]: 0.5 µg/mL | MIC of beta-lactam with NXL-104 (4 mcg/ml) + Sulbactam (8 mcg/ml) [6, 9]: 8 µg/mL | MIC of beta-lactam with NXL-104 (6 mcg/ml) + Sulbactam (6 mcg/ml) [6, 10]: 0.12 µg/mL | MIC of beta-lactam with NXL-104 (8 mcg/ml) + Sulbactam (4 mcg/ml) [6, 11]: 0.5 µg/mL | MIC of beta-lactam with NXL-104 (4 mcg/ml) + Sulbactam (8 mcg/ml) [7, 9]: 4 µg/mL | MIC of beta-lactam with NXL-104 (6 mcg/ml) + Sulbactam (6 mcg/ml) [7, 10]: 1 µg/mL | MIC of beta-lactam with NXL-104 (8 mcg/ml) + Sulbactam (4 mcg/ml) [7, 11]: 0.5 µg/mL | MIC of beta-lactam with NXL-104 (4 mcg/ml) + Sulbactam (4 mcg/ml) [8]: <0.06 µg/mL | MIC of beta-lactam with NXL-104 (4 mcg/ml) + Sulbactam (8 mcg/ml) [8]: <0.06 µg/mL | MIC of beta-lactam with NXL-104 (6 mcg/ml) + Sulbactam (6 mcg/ml) [8]: <0.06 µg/mL | MIC of beta-lactam with NXL-104 (8 mcg/ml) + Sulbactam (4 mcg/ml) [8]: <0.06 µg/mL
SMILES: CO/N=C(\C(=O)N[C@@H]1C(=O)N2C(C(=O)[O-])=C(C[N+]3(C)CCCC3)CS[C@H]12)c1csc(N)n1 [Cefepime, cefepime]

MIC of beta-lactam with NXL-104 (4 mcg/ml) + Sulbactam (4 mcg/ml) [1, 12]: 16 µg/mL | MIC of beta-lactam with NXL-104 (4 mcg/ml) + Sulbactam (8 mcg/ml) [1]: 8 µg/mL | MIC of beta-lactam with NXL-104 (6 mcg/ml) + Sulbactam (6 mcg/ml) [1]: <0.03 µg/mL | MIC of beta-lactam with NXL-104 (8 mcg/ml) + Sulbactam (4 mcg/ml) [1]: <0.03 µg/mL | MIC of beta-lactam in presence of Sulbactam (4 to 8 mcg/ml) ([1]; Sulbactam 4 to 8 mcg/ml): >32 µg/mL | MIC [1, 13]: 16 µg/mL | MIC ([1]; alone, read-out: MIC): > 32 µg/mL | MIC of beta-lactam with NXL-104 (4 mcg/ml) + Sulbactam (4 mcg/ml) [2, 12]: 16 µg/mL | MIC of beta-lactam with NXL-104 (4 mcg/ml) + Sulbactam (8 mcg/ml) [2]: 8 µg/mL | MIC of beta-lactam with NXL-104 (6 mcg/ml) + Sulbactam (6 mcg/ml) [2]: 0.5 µg/mL | MIC of beta-lactam with NXL-104 (8 mcg/ml) + Sulbactam (4 mcg/ml) [2]: 0.5 µg/mL | MIC of beta-lactam in presence of Sulbactam (4 to 8 mcg/ml) ([2]; Sulbactam 4 to 8 mcg/ml): 32 µg/mL | MIC [2, 13]: 16 µg/mL | MIC ([2]; alone, read-out: MIC): 32 µg/mL (≈ 62.2 µM) | MIC of beta-lactam with NXL-104 (4 mcg/ml) + Sulbactam (4 mcg/ml) [3]: <0.06 µg/mL | MIC of beta-lactam with NXL-104 (4 mcg/ml) + Sulbactam (8 mcg/ml) [3]: <0.06 µg/mL | MIC of beta-lactam with NXL-104 (6 mcg/ml) + Sulbactam (6 mcg/ml) [3]: <0.06 µg/mL | MIC of beta-lactam with NXL-104 (8 mcg/ml) + Sulbactam (4 mcg/ml) [3]: <0.06 µg/mL | MIC of beta-lactam in presence of Sulbactam (4 to 8 mcg/ml) ([3]; Sulbactam 4 to 8 mcg/ml): 32 µg/mL | MIC [3, 13]: 16 µg/mL | MIC ([3]; alone, read-out: MIC): 32 µg/mL (≈ 62.2 µM) | MIC of beta-lactam with NXL-104 (4 mcg/ml) + Sulbactam (4 mcg/ml) [4]: <0.06 µg/mL | MIC of beta-lactam with NXL-104 (4 mcg/ml) + Sulbactam (8 mcg/ml) [4]: <0.06 µg/mL | MIC of beta-lactam with NXL-104 (6 mcg/ml) + Sulbactam (6 mcg/ml) [4]: <0.06 µg/mL | MIC of beta-lactam with NXL-104 (8 mcg/ml) + Sulbactam (4 mcg/ml) [4]: <0.06 µg/mL | MIC of beta-lactam in presence of Sulbactam (4 to 8 mcg/ml) [4]: 8 µg/mL | MIC [4, 13]: 16 µg/mL | MIC ([4]; alone, read-out: MIC): 16 µg/mL (≈ 31.1 µM) | MIC of beta-lactam with NXL-104 (4 mcg/ml) + Sulbactam (4 mcg/ml) [5, 12]: 16 µg/mL | MIC of beta-lactam with NXL-104 (4 mcg/ml) + Sulbactam (8 mcg/ml) [5]: 4 µg/mL | MIC of beta-lactam with NXL-104 (6 mcg/ml) + Sulbactam (6 mcg/ml) [5]: 1 µg/mL | MIC of beta-lactam with NXL-104 (8 mcg/ml) + Sulbactam (4 mcg/ml) [5]: 0.5 µg/mL | MIC of beta-lactam in presence of Sulbactam (4 to 8 mcg/ml) ([5]; Sulbactam 4 to 8 mcg/ml): >32 µg/mL | MIC [5, 13]: 32 µg/mL | MIC ([5]; alone, read-out: MIC): > 32 µg/mL | MIC in presence of sulbactam and NXL-104, lowest value ("as low as") (ESBL strains): less than 0.03 mcg/ml | MIC of beta-lactam with NXL-104 (4 mcg/ml) + Sulbactam (4 mcg/ml) [8]: <0.06 µg/mL | MIC of beta-lactam with NXL-104 (4 mcg/ml) + Sulbactam (8 mcg/ml) [8]: <0.06 µg/mL | MIC of beta-lactam with NXL-104 (6 mcg/ml) + Sulbactam (6 mcg/ml) [8]: <0.06 µg/mL | MIC of beta-lactam with NXL-104 (8 mcg/ml) + Sulbactam (4 mcg/ml) [8]: <0.06 µg/mL | MIC of beta-lactam in presence of Sulbactam (4 to 8 mcg/ml) ([8]; Sulbactam 4 to 8 mcg/ml): >32 µg/mL | MIC [8, 13]: > 32 µg/mL | MIC ([8]; alone, read-out: MIC): > 32 µg/mL
SMILES: CO/N=C(\C(=O)N[C@@H]1C(=O)N2C(C(=O)[O-])=C(C[n+]3cccc4c3CCC4)CS[C@H]12)c1csc(N)n1 [Cefpirome, cefpirome]
